Test results from ChEMBL document CHEMBL1255330, “Efficacy of SPK-843, a novel polyene antifungal, in a murine model of systemic cryptococcosis” (Antimicrob Agents Chemother, 2008).
Values after ≈ are worked out from the molar mass of the structure shown. Active and inactive are the calls of the source. No cut-off for these calls is given here.

Legend:
[1] = tested on: Cryptococcus neoformans; assay: Antifungal activity against Cryptococcus neoformans YC-11 infected in BALB/c mouse brain assessed as reduction in multiple fungal induced abscesses at 80 mg/kg, iv qd for 5 days measured after 7 days of infection by histopathological analysis; type: functional, organism-based; parameters: dose 80 mg/kg
[2] = tested on: Cryptococcus neoformans; assay: Antifungal activity against Cryptococcus neoformans YC-11 infected in BALB/c mouse assessed as reduction in fungal burden in brain at 40 mg/kg, iv qd for 5 days measured after 7 days of infection; type: functional
[3] = tested on: Cryptococcus neoformans; assay: Antifungal activity against Cryptococcus neoformans YC-11 infected in BALB/c mouse assessed as increase in mouse survival at 80 mg/kg, iv qd for 5 days; type: functional, organism-based; parameters: dose 80 mg/kg
[4] = tested on: Cryptococcus neoformans; assay: Antifungal activity against Cryptococcus neoformans YC-11 infected in BALB/c mouse assessed as reduction in fungal burden in brain at 80 mg/kg, iv qd for 5 days measured after 7 days of infection; type: functional
[5] = tested on: Cryptococcus neoformans; assay: Antifungal activity against Cryptococcus neoformans YC-11 infected in BALB/c mouse assessed as reduction in fungal burden in brain at 20 mg/kg, iv qd for 5 days measured after 7 days of infection; type: functional
[6] = tested on: Cryptococcus neoformans; assay: Antifungal activity against Cryptococcus neoformans YC-11 by microdilution method; type: functional
[7] = tested on: Cryptococcus neoformans; assay: Antifungal activity against Cryptococcus neoformans YC-11 infected in BALB/c mouse brain assessed as reduction in fungal induced abscesses at 4 mg/kg, iv qd for 5 days measured after 7 days of infection by histopathological analysis; type: functional, organism-based; parameters: dose 4 mg/kg
[8] = tested on: Cryptococcus neoformans; assay: Antifungal activity against Cryptococcus neoformans YC-11 infected in BALB/c mouse assessed as reduction in fungal burden in brain at 2 mg/kg, iv qd for 5 days measured after 7 days of infection; type: functional
[9] = tested on: Cryptococcus neoformans; assay: Antifungal activity against Cryptococcus neoformans YC-11 infected in BALB/c mouse assessed as reduction in fungal burden in brain at 4 mg/kg, iv treated qd for 5 days measured after 7 days of infection; type: functional
[10] = tested on: Cryptococcus neoformans; assay: Antifungal activity against Cryptococcus neoformans YC-11 infected in BALB/c mouse brain assessed as reduction in multiple fungal induced abscesses at 2 mg/kg, iv qd for 5 days measured after 7 days of infection by histopathological analysis; type: functional, organism-based; parameters: dose 2 mg/kg
[11] = tested on: Cryptococcus neoformans; assay: Antifungal activity against Cryptococcus neoformans YC-11 infected in BALB/c mouse assessed as reduction in fungal burden in brain at 1 mg/kg, iv qd for 5 days measured after 7 days of infection; type: functional
[12] = tested on: Mus musculus; assay: Toxicity in BALB/c mouse at 4 mg/kg, iv; type: organism-based; parameters: dose 4 mg/kg, route intravenous; settings: in vivo
[13] = tested on: Cryptococcus neoformans; assay: Antifungal activity against Cryptococcus neoformans YC-11 infected in BALB/c mouse assessed as increase in mouse survival at 1 mg/kg, iv qd for 5 days; type: functional, organism-based; parameters: dose 1 mg/kg
[14] = tested on: Cryptococcus neoformans; assay: Antifungal activity against Cryptococcus neoformans YC-11 infected in BALB/c mouse assessed as increase in mouse survival at 4 mg/kg, iv qd for 5 days; type: functional, organism-based; parameters: dose 4 mg/kg
[15] = tested on: Cryptococcus neoformans; assay: Antifungal activity against Cryptococcus neoformans YC-11 infected in BALB/c mouse brain assessed as reduction in multiple fungal induced abscesses at 1 mg/kg, iv qd for 5 days measured after 7 days of infection by histopathological analysis; type: functional, organism-based; parameters: dose 1 mg/kg
[16] = tested on: Cryptococcus neoformans; assay: Antifungal activity against Cryptococcus neoformans YC-11 infected in BALB/c mouse assessed as increase in mouse survival at 0.5 mg/kg, iv qd for 5 days; type: functional, organism-based; parameters: dose 0.5 mg/kg
[17] = tested on: Cryptococcus neoformans; assay: Antifungal activity against Cryptococcus neoformans YC-11 infected in BALB/c mouse liver assessed as reduction in fungal induced liver damage at 0.7 mg/kg, iv qd for 5 days measured after 7 days of infection by histopathological analysis; type: functional, organism-based; parameters: dose 0.7 mg/kg
[18] = tested on: Cryptococcus neoformans; assay: Antifungal activity against Cryptococcus neoformans YC-11 infected in BALB/c mouse liver assessed as reduction in fungal induced liver damage at 4 mg/kg, iv qd for 5 days measured after 7 days of infection by histopathological analysis; type: functional, organism-based; parameters: dose 4 mg/kg
[19] = tested on: Cryptococcus neoformans; assay: Antifungal activity against Cryptococcus neoformans YC-11 infected in BALB/c mouse kidney assessed as reduction in fungal induced tubular cell necrosis at 0.7 mg/kg, iv treated qd for 5 days measured after 7 days of infection by histopathological analysis; type: functional, organism-based; parameters: dose 0.7 mg/kg
[20] = tested on: Cryptococcus neoformans; assay: Antifungal activity against Cryptococcus neoformans YC-11 infected in BALB/c mouse assessed as increase in mouse survival at 0.7 mg/kg, iv qd for 5 days; type: functional, organism-based; parameters: dose 0.7 mg/kg

OC(Cn1cncn1)(Cn1cncn1)c1ccc(F)cc1F [FLUCONAZOLE]
Activity [1]: inactive
log10cfu [2]: 6.71
Activity [3]: Active
log10cfu [4]: 6.34
log10cfu [5]: 7.03
MIC [6]: 2 µg/mL (≈ 6.53 µM)

CNc1ccc(C(=O)CC(O)CC[C@H](C)[C@H]2OC(=O)C[C@H](O)CC(=O)C[C@H](O)C[C@H](O)C[C@H](O)C[C@H](O)C[C@]3(O)C[C@H](O)[C@@H](C(=O)NCCN(C)C)C(C[C@@H](OC4O[C@H](C)[C@@H](O)[C@H](NC(=O)CN(C)C)[C@@H]4O)/C=C/C=C/C=C/C=C\C=C/C=C/C=C/[C@@H]2C)O3)cc1.O=C1O[C@H]([C@H](O)CO)C(O)=C1O (some centres not stated)
Activity [7]: Active
log10cfu [8]: 6.44
log10cfu [9]: 3.45
Activity [10]: inactive
log10cfu [11]: 7.42
Activity [12]: Non-toxic
Activity [13]: Active
MIC [6]: 0.125 µg/mL
Activity [14]: Active
Activity [15]: inactive

C[C@@H]1[C@H](O)[C@@H](C)/C=C/C=C/C=C/C=C/C=C/C=C/C=C/[C@H](O[C@@H]2O[C@H](C)[C@@H](O)[C@H](N)[C@@H]2O)C[C@@H]2O[C@](O)(C[C@@H](O)C[C@@H](O)[C@H](O)CC[C@@H](O)C[C@@H](O)CC(=O)O[C@H]1C)C[C@H](O)[C@H]2C(=O)O [AMPHOTERICIN B]
Activity [16]: Active
Activity [17]: Active
Activity [18]: Active
MIC [6]: 0.25 µg/mL (≈ 0.271 µM)
Activity [19]: inactive
Activity [20]: Active
